Measured values from ChEMBL document CHEMBL6178020, “Harder than Metal: Challenging Antimicrobial Resistance with Metallo-β-lactamase Inhibitors” (J Med Chem, 2025).
Each block holds one molecule with its values, some of them ahead of it.

Key:
[1] = target: T1, Metallo-beta-lactamase type 2 (Bacteria, UniProt C7C422); experiment: Inhibition of Metallo-beta-lactamase NDM-1 (unknown origin)
[2] = target: T1, Metallo-beta-lactamase type 2; experiment: Inhibition of N-terminal NDM-1 (unknown origin) extracted from Escherichia coli BL21
[3] = target: T1, Metallo-beta-lactamase type 2; experiment: Binding affinity to N-terminal NDM-1 (unknown origin) extracted from Escherichia coli BL21 assessed as inhibition constant
[4] = tested on: Serratia marcescens; experiment: Antibacterial activity against Serratia marcescens expressing IMP-1 assessed as bacterial growth inhibition in presence of IPM; assay type: functional
[5] = tested on: Escherichia coli; experiment: Antibacterial activity against Escherichia coli expressing NDM-1 assessed as bacterial growth inhibition in presence of IPM; assay type: functional
[6] = target: T1, Metallo-beta-lactamase type 2; experiment: Inhibition of NDM-1 (unknown origin)
[7] = tested on: Klebsiella pneumoniae; experiment: Antibacterial activity against Klebsiella pneumoniae expressing VIM-1 assessed as bacterial growth inhibition in presence of IPM; assay type: functional
[8] = tested on: Escherichia coli; experiment: Antibacterial activity against carbapenem-resistant Escherichia coli IR57 infected in mouse assessed as fold reduction in bacterial load at 10 mg/kg, sc measured for 24 hrs in presence of Meropenem; assay type: functional
[9] = tested on: Escherichia coli; experiment: Antibacterial activity against carbapenem-resistant Escherichia coli […] infected in mouse assessed as fold reduction in bacterial load at 10 mg/kg, sc measured for 24 hrs in presence of Meropenem; assay type: functional
[10] = tested on: Klebsiella pneumoniae; experiment: Antibacterial activity against carbapenem-resistant Klebsiella pneumoniae B68-1 infected in mouse assessed as fold reduction in bacterial load at 10 mg/kg, sc measured for 24 hrs in presence of Meropenem; assay type: functional
[11] = tested on: Escherichia coli; experiment: Antibacterial activity against carbapenem-resistant Escherichia coli IHMA 997800 infected in mouse assessed as fold reduction in bacterial load at 10 mg/kg, sc measured for 24 hrs in presence of Meropenem; assay type: functional
[12] = tested on: Klebsiella pneumoniae; experiment: Antibacterial activity against Klebsiella pneumoniae expressing VIM-1 assessed as bacterial growth inhibition; assay type: functional
[13] = tested on: Serratia marcescens; experiment: Antibacterial activity against Serratia marcescens expressing IMP-1 assessed as bacterial growth inhibition; assay type: functional
[14] = tested on: Escherichia coli; experiment: Antibacterial activity against Escherichia coli expressing NDM-1 assessed as bacterial growth inhibition; assay type: functional

T1 sequence (C7C422 whole entry): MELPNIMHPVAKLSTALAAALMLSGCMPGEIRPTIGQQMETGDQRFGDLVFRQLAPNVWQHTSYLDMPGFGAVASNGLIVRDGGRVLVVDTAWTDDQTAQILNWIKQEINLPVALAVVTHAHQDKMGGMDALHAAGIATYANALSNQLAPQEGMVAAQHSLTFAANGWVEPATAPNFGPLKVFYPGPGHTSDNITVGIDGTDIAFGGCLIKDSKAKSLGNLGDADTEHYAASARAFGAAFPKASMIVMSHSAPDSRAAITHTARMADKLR

Compound: O=C(O)CN1CCN(CC(=O)O)CCN(CC(=O)O)CC1
- IC50 [1]: 0.28 µM

Compound: Nc1cccc(-c2cc(C(=O)O)nc(C(=O)O)c2)c1
- IC50 ([2]; read-out: IC50): 0.08 µM

Compound: N[C@H](CN[C@H](CN[C@@H](CC(=O)O)C(=O)O)C(=O)O)C(=O)O
- IC50 [1]: 4 µM

Compound: O=C(O)c1ncsc1NS(=O)(=O)c1cccnc1
- Ki [3]: 0.8 µM

Compound: C[C@H](CS)C(=O)N1Cc2ccccc2C[C@@H]1C(=O)O
- IC50 [1]: > 300 µM

Compound: NS(=O)(=O)c1nccc(-c2ccc(CO)cc2)c1-c1nn[nH]n1
- MITC95 [4]: 5.19 µM
- MITC95 [5]: 0.558 µM
- IC50 [6]: 0.035 µM
- MITC95 [7]: 11.76 µM

Compound: Nc1cc(-c2nnn[nH]2)c(S(N)(=O)=O)cc1S(N)(=O)=O
- IC50 [6]: 0.033 µM

Compound: Cc1ccc(-c2cccc(S(N)(=O)=O)c2-c2nnn[nH]2)cc1
- MITC95 [4]: 13.8 µM
- MITC95 [5]: 1.48 µM
- MITC95 [7]: 127 µM

Compound: N=C(N)NNC(=O)Nc1c(F)cc(S(=O)(=O)Nc2scnc2C(=O)O)cc1F
- Ki [3]: 0.04 µM

Compound: COc1ccc(Cl)cc1-c1c(C(=O)O)[nH]c2c1CCc1ccccc1-2
- IC50 ([2]; read-out: IC50): 0.05 µM

Compound: C[C@@H](c1cccc2c(-c3ccc(CS(C)(=O)=O)c(F)c3)c(C(=O)O)[nH]c12)N1CC2(CC(CN)C2)OC1=O (stereo not given in full)
- IC50 ([2]; read-out: pIC50 (converted)): < 0.001 µM
- fold change (FC) [8]: 7
- fold change (FC) [9]: 7
- fold change (FC) [10]: 7
- fold change (FC) [11]: 7

Compound: OCC(S)CS (stereo not given) [DIMERCAPROL]
- IC50 [1]: 1.3 µM

Compound: C[C@@H](O)[C@H]1C(=O)N2C(C(=O)O)=C(SCCNC=N)C[C@H]12 [IMIPENEM ANHYDROUS]
- MITC95 [12]: 64 µg/mL
- MITC95 [13]: 16 µg/mL
- MITC95 [14]: 32 µg/mL

Compound: O=C(O)CN1CCN(CC(=O)O)CCN(CC(=O)O)CCN(CC(=O)O)CC1 [TETRAXETAN]
- IC50 [1]: 1.34 µM

Compound: O=C(O)CNC(=O)C(CS)Cc1ccccc1 (stereo not given) [THIORPHAN]
- IC50 [1]: 1.8 µM

Results, then the molecule that gave them:

- IC50 [1]: 4.6 µM
Compound: C[C@H](CS)C(=O)N1CCc2ccccc2[C@@H]1C(=O)O

- IC50 [1]: 11.1 µM
Compound: C[C@H](CS)C(=O)N1CCC(C(N)=O)CC1

- IC50 [1]: 28.4 µM
Compound: C[C@H](CS)C(=O)N1CCC[C@H](C(=O)O)C1

- IC50 [1]: 20.4 µM
Compound: C[C@H](CS)C(=O)N1CCCCC[C@@H]1C(=O)O

- IC50 [1]: 27.9 µM
Compound: C[C@H](CS)C(=O)N1CCC(CC(N)=O)CC1

- IC50 [1]: 6.9 µM
Compound: C[C@H](CS)C(=O)N1CCCC[C@@H]1C(=O)O

- IC50 [1]: 75 µM
Compound: O=C(O)[C@H]1CCCN1C(=O)C(CS)CS

- IC50 [1]: 4.9 µM
Compound: C[C@H](CS)C(=O)N1CCC(C(=O)O)CC1

- IC50 [1]: 19.8 µM
Compound: C[C@H](CS)C(=O)N1CCC(CC(=O)O)CC1
